According to ChEMBL document CHEMBL3739373, “1,2,3-Triazole derivatives as antitubercular agents: synthesis, biological evaluation and molecular docking study” (Medchemcomm, 2015):
≈ marks a conversion by molar mass, not a printed value.

How the values were obtained:
[1] = test system: Mycobacterium tuberculosis; assay: Antitubercular activity against dormant phase Mycobacterium tuberculosis H37Ra ATCC 25177 incubated for 12 days by XTT reduction menadione assay; type: functional, organism-based; details: 288 h
[2] = Antioxidant activity assessed as DPPH radical scavenging activity after 30 mins by spectrophotometric analysis; type: physicochemical
[3] = Selectivity index, ratio of GI50 for human THP1 cells to MIC for dormant phase Mycobacterium tuberculosis H37Ra ATCC 25177; type: toxicity, cell-based, THP-1; details: read-out: Selectivity Index
[4] = Cytotoxicity against human THP1 cells assessed as growth inhibition after 48 hrs by MTT assay; type: cell-based, THP-1; details: for GI50 at 48 h: THP1 cells; for GI90: thp-1, 48 h
A549 = assay: (§1) Cytotoxicity against human A549 cells assessed as growth inhibition after 48 hrs by MTT assay; type: cell-based; details: a549, 48 h
[5] = as §1; type: cell-based; details: A549 cells
[6] = Cytotoxicity against human PANC1 cells assessed as growth inhibition after 48 hrs by MTT assay; type: cell-based, PANC-1; details: for GI50 at 48 h: PANC1 cells; for GI90: panc-1, 48 h
[7] = Selectivity index, ratio of GI50 for human A549 cells to MIC for dormant phase Mycobacterium tuberculosis H37Ra ATCC 25177; type: toxicity, cell-based; details: read-out: Selectivity Index
[8] = Selectivity index, ratio of GI50 for human PANC1 cells to MIC for dormant phase Mycobacterium tuberculosis H37Ra ATCC 25177; type: toxicity, cell-based, PANC-1; details: read-out: Selectivity Index

SMILES | IC50 [1] | MIC [1] | IC50 [2] | selectivity ratio [3] | GI50 at 48 h [4] | GI90 [4] | GI90 (A549) | GI50 at 48 h [5] | GI50 at 48 h [6] | GI90 [6] | selectivity ratio [7] | selectivity ratio [8]
Clc1cccc(Cn2cc(COc3c(Cl)cc(Cl)cc3Cl)nn2)c1 | 2.2 µg/mL (≈ 5.46 µM) | > 30 µg/mL | 16.4 µg/mL (≈ 40.7 µM) | – | – | – | – | – | – | – | – | –
Cc1cc(OCc2cn(Cc3cccc([N+](=O)[O-])c3)nn2)ccc1Cl | 2.2 µg/mL (≈ 6.13 µM) | > 30 µg/mL | 15.6 µg/mL (≈ 43.5 µM) | – | – | – | – | – | – | – | – | –
Clc1cccc(Cn2cc(COc3ccccc3)nn2)c1 | 2.4 µg/mL (≈ 8.01 µM) | 27.7 µg/mL (≈ 92.4 µM) | 27.3 µg/mL (≈ 91.1 µM) | 0.5 | 14.6 µg/mL (≈ 48.7 µM) | 54.3 µg/mL (≈ 181 µM) | > 100 µg/mL | > 100 µg/mL | > 100 µg/mL | > 100 µg/mL | > 3.6 | > 3.6
Cc1ccc(OCc2cn(Cc3ccc(Br)cc3)nn2)cc1 | 7.8 µg/mL (≈ 21.8 µM) | > 30 µg/mL | 16.3 µg/mL (≈ 45.5 µM) | – | – | – | – | – | – | – | – | –
Cc1ccc(OCc2cn(Cc3ccc([N+](=O)[O-])cc3)nn2)cc1 | 1.1 µg/mL (≈ 3.39 µM) | 29.9 µg/mL (≈ 92.2 µM) | 10.9 µg/mL (≈ 33.6 µM) | 0.5 | 14.2 µg/mL (≈ 43.8 µM) | 66.4 µg/mL (≈ 205 µM) | > 100 µg/mL | > 100 µg/mL | > 100 µg/mL | > 100 µg/mL | > 3.3 | > 3.3
Cc1ccc(OCc2cn(Cc3cccc(Cl)c3)nn2)cc1 | 3 µg/mL (≈ 9.56 µM) | 28.9 µg/mL (≈ 92.1 µM) | 16.3 µg/mL (≈ 51.9 µM) | 1.3 | 36.7 µg/mL (≈ 117 µM) | 93.1 µg/mL (≈ 297 µM) | > 100 µg/mL | > 100 µg/mL | > 100 µg/mL | > 100 µg/mL | > 3.5 | > 3.5
O=[N+]([O-])c1ccc(Cn2cc(COc3ccccc3)nn2)cc1 | 1.7 µg/mL (≈ 5.48 µM) | 28 µg/mL (≈ 90.2 µM) | 10.1 µg/mL (≈ 32.5 µM) | 2.2 | 62.9 µg/mL (≈ 203 µM) | > 100 µg/mL | > 100 µg/mL | > 100 µg/mL | > 100 µg/mL | > 100 µg/mL | > 3.6 | > 3.6
Cc1cc(OCc2cn(Cc3ccc(Br)cc3)nn2)ccc1Cl | 2.4 µg/mL (≈ 6.11 µM) | > 30 µg/mL | 16.5 µg/mL (≈ 42 µM) | – | – | – | – | – | – | – | – | –
O=[N+]([O-])c1cccc(Cn2cc(COc3ccccc3)nn2)c1 | 2.4 µg/mL (≈ 7.73 µM) | > 30 µg/mL | 25.3 µg/mL (≈ 81.5 µM) | – | – | – | – | – | – | – | – | –
O=[N+]([O-])c1cccc(OCc2cn(Cc3cccc(Cl)c3)nn2)c1 | 26.6 µg/mL (≈ 77.2 µM) | > 100 µg/mL | 31.2 µg/mL (≈ 90.5 µM) | – | – | – | – | – | – | – | – | –
O=[N+]([O-])c1cccc(Cn2cc(COc3c(Cl)cc(Cl)cc3Cl)nn2)c1 | 2.6 µg/mL (≈ 6.29 µM) | > 30 µg/mL | 29.2 µg/mL (≈ 70.6 µM) | – | – | – | – | – | – | – | – | –
Brc1ccc(Cn2cc(COc3ccccc3)nn2)cc1 | 3.2 µg/mL (≈ 9.3 µM) | 28.9 µg/mL (≈ 84 µM) | 18.3 µg/mL (≈ 53.2 µM) | 0.6 | 16.2 µg/mL (≈ 47.1 µM) | 68.3 µg/mL (≈ 198 µM) | > 100 µg/mL | > 100 µg/mL | > 100 µg/mL | > 100 µg/mL | > 3.5 | > 3.5
O=[N+]([O-])c1ccc(Cn2cc(COc3ccc(Cl)cc3)nn2)cc1 | 3.6 µg/mL (≈ 10.4 µM) | 27.5 µg/mL (≈ 79.8 µM) | 24.2 µg/mL (≈ 70.2 µM) | 1.1 | 31.1 µg/mL (≈ 90.2 µM) | 88.9 µg/mL (≈ 258 µM) | > 100 µg/mL | > 100 µg/mL | > 100 µg/mL | > 100 µg/mL | > 3.6 | > 3.6
Cc1ccc(OCc2cn(Cc3ccc(Cl)cc3)nn2)cc1 | 2.5 µg/mL (≈ 7.97 µM) | 24.2 µg/mL (≈ 77.1 µM) | 17.3 µg/mL (≈ 55.1 µM) | 3.1 | 74.1 µg/mL (≈ 236 µM) | > 100 µg/mL | > 100 µg/mL | > 100 µg/mL | > 100 µg/mL | > 100 µg/mL | > 4.1 | > 4.1
O=[N+]([O-])c1cccc(Cn2cc(COc3cccc([N+](=O)[O-])c3)nn2)c1 | 8.3 µg/mL (≈ 23.4 µM) | > 30 µg/mL | 19.1 µg/mL (≈ 53.8 µM) | – | – | – | – | – | – | – | – | –
O=[N+]([O-])c1ccc(Cn2cc(COc3c(Cl)cc(Cl)cc3Cl)nn2)cc1 | 2.2 µg/mL (≈ 5.32 µM) | > 30 µg/mL | 28.9 µg/mL (≈ 69.9 µM) | – | – | – | – | – | – | – | – | –
O=[N+]([O-])c1cccc(Cn2cc(COc3ccc(Cl)cc3)nn2)c1 | 2.6 µg/mL (≈ 7.54 µM) | 29.2 µg/mL (≈ 84.7 µM) | 21.3 µg/mL (≈ 61.8 µM) | 1.2 | 34.9 µg/mL (≈ 101 µM) | 97.6 µg/mL (≈ 283 µM) | > 100 µg/mL | > 100 µg/mL | > 100 µg/mL | > 100 µg/mL | > 3.4 | > 3.4
O=[N+]([O-])c1cccc(OCc2cn(Cc3ccc(Cl)cc3)nn2)c1 | 53.4 µg/mL (≈ 155 µM) | > 100 µg/mL | 37.3 µg/mL (≈ 108 µM) | – | – | – | – | – | – | – | – | –
O=[N+]([O-])c1ccc(OCc2cn(Cc3ccc(Br)cc3)nn2)c(I)c1 | 25 µg/mL (≈ 48.5 µM) | > 30 µg/mL | 18.5 µg/mL (≈ 35.9 µM) | – | – | – | – | – | – | – | – | –
Clc1ccc(Cn2cc(COc3ccccc3)nn2)cc1 | 3.5 µg/mL (≈ 11.7 µM) | 29.9 µg/mL (≈ 99.7 µM) | 26.1 µg/mL (≈ 87.1 µM) | 1.2 | 36.4 µg/mL (≈ 121 µM) | > 100 µg/mL | > 100 µg/mL | > 100 µg/mL | > 100 µg/mL | > 100 µg/mL | > 3.3 | > 3.3
O=[N+]([O-])c1ccc(Cn2cc(COc3cccc([N+](=O)[O-])c3)nn2)cc1 | > 100 µg/mL | > 100 µg/mL | 17.1 µg/mL (≈ 48.1 µM) | – | – | – | – | – | – | – | – | –
Cc1ccc(OCc2cn(Cc3cccc([N+](=O)[O-])c3)nn2)cc1 | 2.4 µg/mL (≈ 7.4 µM) | > 30 µg/mL | 12.1 µg/mL (≈ 37.3 µM) | – | – | – | – | – | – | – | – | –
O=[N+]([O-])c1cccc(OCc2cn(Cc3ccc(Br)cc3)nn2)c1 | 43.2 µg/mL (≈ 111 µM) | > 100 µg/mL | 29.4 µg/mL (≈ 75.5 µM) | – | – | – | – | – | – | – | – | –
O=C1O[C@H]([C@@H](O)CO)C(O)=C1O [ASCORBIC ACID] | – | – | 12.7 µg/mL (≈ 72.1 µM) | – | – | – | – | – | – | – | – | –
Cc1cc(C(C)(C)C)c(O)c(C(C)(C)C)c1 [BUTYLATED HYDROXYTOLUENE] | – | – | 16.5 µg/mL (≈ 74.9 µM) | – | – | – | – | – | – | – | – | –
CC(=O)O[C@H]1C(=O)[C@@]2(C)[C@H]([C@H](OC(=O)c3ccccc3)[C@]3(O)C[C@H](OC(=O)[C@H](O)[C@@H](NC(=O)c4ccccc4)c4ccccc4)C(C)=C1C3(C)C)[C@]1(OC(C)=O)CO[C@@H]1C[C@@H]2O [PACLITAXEL] | – | – | – | > 2330 | 0.14 µg/mL (≈ 0.164 µM) | 5.82 µg/mL (≈ 6.82 µM) | 5.72 µg/mL (≈ 6.7 µM) | 0.13 µg/mL (≈ 0.152 µM) | 0.004 µg/mL (≈ 0.00468 µM) | 0.07 µg/mL (≈ 0.082 µM) | > 2330 | > 2330
CO[C@H]1/C=C/O[C@@]2(C)Oc3c(C)c(O)c4c(O)c(c(/C=N/N5CCN(C)CC5)c(O)c4c3C2=O)NC(=O)/C(C)=C\C=C\[C@H](C)[C@H](O)[C@@H](C)[C@@H](O)[C@@H](C)[C@H](OC(C)=O)[C@@H]1C [RIFAMPIN] | 0.002 µg/mL (≈ 0.00243 µM) | 0.04 µg/mL (≈ 0.0486 µM) | – | – | – | – | – | – | – | – | – | –
